Test results as given in patent US20140275063A1, “NEW ENZYME INHIBITOR COMPOUNDS” (PROXIMAGEN LIMITED, priority 2011, published 2014).
Where a name gives a salt, the structure may show the parent alone.

molecular target: T1, human SSAO (Homo sapiens, UniProt Q16853); assay: SSAO inhibitory activity (HRP-coupled hydrogen peroxide detection or 14C-benzaldehyde detection, benzylamine substrate); assay type: biochemical; conditions: purified recombinantly expressed human SSAO, benzylamine as substrate, RT
T1 construct: made in house
T1 sequence (Q16853 29-763 limits assumed): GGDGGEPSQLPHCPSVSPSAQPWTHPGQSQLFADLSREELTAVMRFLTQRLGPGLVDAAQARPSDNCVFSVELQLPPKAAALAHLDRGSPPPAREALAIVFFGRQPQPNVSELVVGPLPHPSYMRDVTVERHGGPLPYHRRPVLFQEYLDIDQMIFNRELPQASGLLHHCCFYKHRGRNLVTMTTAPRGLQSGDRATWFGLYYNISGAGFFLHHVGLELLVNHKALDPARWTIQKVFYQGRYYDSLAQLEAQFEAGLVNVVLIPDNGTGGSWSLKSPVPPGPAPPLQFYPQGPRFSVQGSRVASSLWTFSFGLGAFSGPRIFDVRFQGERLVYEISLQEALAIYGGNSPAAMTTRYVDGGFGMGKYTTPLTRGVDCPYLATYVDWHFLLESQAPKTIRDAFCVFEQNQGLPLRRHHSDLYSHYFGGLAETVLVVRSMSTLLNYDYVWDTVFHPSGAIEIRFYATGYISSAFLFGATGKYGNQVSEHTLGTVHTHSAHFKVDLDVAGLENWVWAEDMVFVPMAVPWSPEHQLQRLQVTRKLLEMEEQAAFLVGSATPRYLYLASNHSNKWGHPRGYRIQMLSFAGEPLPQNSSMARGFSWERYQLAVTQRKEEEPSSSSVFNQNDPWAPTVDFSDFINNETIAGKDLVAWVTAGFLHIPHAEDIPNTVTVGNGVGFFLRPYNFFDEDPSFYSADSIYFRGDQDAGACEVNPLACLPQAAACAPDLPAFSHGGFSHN
Procedure: All primary assays were performed at RT. with purified recombinantly expressed human SSAO. Enzyme was prepared essentially as described in Öhman et al. (Protein Expression and Purification 46 (2006) 321-331). In addition, secondary- and selectivity assays were performed using SSAO prepared from various tissues or purified rat recombinant SSAO. The enzyme activity was assayed with benzylamine as substrate by measuring either benzaldehyde production, using ^14C-labeled substrate, or by utilizing the production of hydrogen peroxide in a horseradish peroxidase (HRP) coupled reaction. Briefly, test compounds were dissolved in dimethyl sulfoxide (DMSO) to a concentration of 10 mM. Dose-response measurements were assayed by either creating 1:10 serial dilutions in DMSO to produce a 7 point curve or by making 1:3 serial dilutions in DMSO to produce 11 point curves. The top concentrations were adjusted depending on the potency of the compounds and subsequent dilution in reaction buffer yielded a final DMSO concentration ≦2%.
In a horseradish peroxidase (HRP) coupled reaction, hydrogen peroxide oxidation of 10-acetyl-3,7-dihydroxyphenoxazine produced resorufin, which is a highly fluorescent compound (Zhout and Panchuk-Voloshina. Analytical Biochemistry 253 (1997) 169-174; Amplex® Red Hydrogen Peroxideperoxidase Assay kit, Invitrogen A22188). Enzyme and compounds in 50 mM sodium phosphate, pH 7.4 were set to pre-incubate in flat-bottomed microtiter plates for approximately 15 minutes before initiating the reaction by addition of a mixture of HRP, benzylamine and Amplex reagent. Benzylamine concentration was fixed at a concentration corresponding to the Michaelis constant, determined using standard procedures. Fluorescence intensity was then measured at several time points during 1-2 hours, exciting at 544 nm and reading the emission at 590 nm. For the human SSAO assay final concentrations of the reagents in the assay wells were: SSAO enzyme 1 μg/ml, benzylamine 100 μM, Amplex reagent 20 μM, HRP 0.1 U/mL and varying concentrations of test compound. The inhibition was measured as % decrease of the signal compared to a control without inhibitor (only diluted DMSO). The background signal from a sample containing no SSAO enzyme was subtracted from all data points. Data was fitted to a four parameter logistic model and IC50 values were calculated using the Graph Pad Prism 4 or XLfit 4 programs.
SSAO activity was assayed using 14C-labeled benzylamine and analysed by measuring radioactive benzaldehyde. In a white 96-well optiplate (Packard), 20 μL of diluted test compound was pre-incubated at RT. with 20 μL SSAO enzyme for approximately 15 minutes with continuous agitation. All dilutions were made with PBS. The reaction was initiated by adding 20 μL of the benzylamine substrate solution containing [7-14C] Benzylamine hydrochloride (CFA589, GE Healthcare). The plate was incubated for 1 hour as above after which the reaction was stopped by acidification (10 μL 1 M HCl). Then 90 μL Micro Scint-E solution (Perkin-Elmer) was added to each well and the plate was continuously mixed for 15 minutes. Phase separation occurred instantly and activity was read in a Topcount scintillation counter (Perkin-Elmer). In the final reaction well, the human recombinant SSAO concentration was 10 μg/ml. In order to optimize sensitivity, the substrate concentration was decreased as compared to the HRP coupled assay in order to get a higher fraction of radioactive product. In the human SSAO assay, benzylamine concentration was 40 μM (0.2 μCi/mL). Data was analysed as above.

| IC50 [µM] | SMILES |
| --- | --- |
| < 0.1 | CN1CCN(C)C(CNC(=O)N2CCC(c3cn(-c4ccc(Cl)cc4)c4cnccc34)CC2)C1 (stereo not drawn) [Compound 21, 4-[1-(4-Chlorophenyl)-1H-pyrrolo[2,3-c]pyridin-3-yl]-N-[(1,4-dimethyl-piperazin-2-yl)methyl] piperidine-1-carboxamide] |
| < 0.1 | CN1CCC(CNC(=O)N2CCC(c3cn(-c4ccc(Cl)cc4)c4cnccc34)CC2)CC1 [Compound 11, 4-[1-(4-Chlorophenyl)-1H-pyrrolo[2,3-c]pyridin-3-yl]-N-[(1-methylpiperidin-4-yl)methyl] piperidine-1-carboxamide] |
| < 0.1 | CN1CCN(C(=O)N2CCC(c3cn(-c4ccc(Cl)cc4)c4cnccc34)CC2)CC1 [Compound 5, 1-({4-[1-(4-Chlorophenyl)-1H-pyrrolo[2,3-c]pyridin-3-yl]piperidin-1-yl}carbonyl)-4-methylpiperazine] |
| 0.1 to 0.5 | Clc1ccc(-n2nc(N3CCC(CN4CCNCC4)CC3)c3ccncc32)cc1 [Compound 49, 1-({1-[1-(4-Chlorophenyl)-1H-pyrazolo[3,4-c]pyridin-3-yl]piperidin-4-yl}methyl)piperazine] |
| < 0.1 | O=C(N1CCC(c2cn(-c3ccc(Cl)cc3)c3cnccc23)CC1)N1CCN(C2CC2)CC1 [Compound 16, 1-({4-[1-(4-Chlorophenyl)-1H-pyrrolo[2,3-c]pyridin-3-yl]piperidin-1-yl}carbonyl)-4-cyclopropyl-piperazine] |
| < 0.1 | O=C(NC1(c2nn[nH]n2)CCC1)N1CCC(c2cn(-c3ccc(Cl)cc3)c3cnccc23)CC1 [Compound 63, 4-[1-(4-Chlorophenyl)-1H-pyrrolo[2,3-c]pyridin-3-yl]-N-[1-(2H-1,2,3,4-tetrazol-5-yl)cyclobutyl]piperidine-1-carboxamide; trifluoroacetic acid] |
| < 0.1 | CC(C)[C@H]1CN(C(=O)N2CCC(c3cn(-c4ccc(Cl)cc4)c4cnccc34)CC2)CCN1 [Compound 19, (3S)-1-({4-[1-(4-Chlorophenyl)-1H-pyrrolo[2,3-c]pyridin-3-yl]piperidin-1-yl}carbonyl)-3-(propan-2-yl) piperazine] |
| < 0.1 | Clc1ccc(-n2nc(N3CCC(CN4CCOCC4)CC3)c3ccncc32)cc1 [Compound 48, 4-({1-[1-(4-Chlorophenyl)-1H-pyrazolo[3,4-c]pyridin-3-yl]piperidin-4-yl}methyl) morpholine dihydrochloride] |
| < 0.1 | CN1CCC(CCNC(=O)N2CCC(c3cn(-c4ccc(Cl)cc4)c4cnccc34)CC2)CC1 [Compound 24, 4-[1-(4-Chlorophenyl)-1H-pyrrolo[2,3-c]pyridin-3-yl]-N-[2-(1-methylpiperidin-4-yl)ethyl] piperidine-1-carboxamide] |
| < 0.1 | CN1CCN(CCNC(=O)N2CCC(c3cn(-c4ccc(Cl)cc4)c4cnccc34)CC2)CC1 [Compound 25, 4-[1-(4-Chlorophenyl)-1H-pyrrolo[2,3-c]pyridin-3-yl]-N-[2-(4-methylpiperazin-1-yl)ethyl] piperidine-1-carboxamide] |
| < 0.1 | Clc1ccc(-n2cc(C3CCN(C4CCNC4)CC3)c3ccncc32)cc1 (stereo not drawn) [Compound 1, 4-[1-(4-Chlorophenyl)-1H-pyrrolo[2,3-c]pyridin-3-yl]-1-(pyrrolidin-3-yl)piperidine] |
| 0.1 to 0.5 | Clc1ccc(-n2cc(C3CCN(C4CCNCC4)CC3)c3ccncc32)cc1 [Compound 2, 4-[1-(4-Chlorophenyl)-1H-pyrrolo[2,3-c]pyridin-3-yl]-1-(piperidin-4-yl)piperidine] |
| < 0.1 | CC(C)N1CCC(NC(=O)N2CCC(c3cn(-c4ccc(Cl)cc4)c4cnccc34)CC2)CC1 [Compound 9, 4-[1-(4-Chlorophenyl)-1H-pyrrolo[2,3-c]pyridin-3-yl]-N-[1-(propan-2-yl)piperidin-4-yl] piperidine-1-carboxamide] |

Second part, the compound before the results:

| SMILES | IC50 [µM] |
| --- | --- |
| CN1CCN(CC2CN(c3nn(-c4ccc(Cl)cc4)c4cnccc34)CCO2)CC1 (stereo not drawn) [Compound 35, 4-[1-(4-Chlorophenyl)-1H-pyrazolo[3,4-c]pyridin-3-yl]-2-[(4-methylpiperazin-1-yl)methyl]morpholine] | 0.1 to 0.5 |
| NC(=O)NCC1CN(c2nn(-c3ccc(Cl)cc3)c3cnccc23)CCO1 (stereo not drawn) [Compound 59, ({4-[1-(4-Chlorophenyl)-1H-pyrazolo[3,4-c]pyridin-3-yl]morpholin-2-yl}methyl)urea] | < 0.1 |
| Clc1ccc(-n2nc(NCCN3CCOCC3)c3ccncc32)cc1 [Compound 44, 1-(4-Chlorophenyl)-N-[2-(morpholin-4-yl)ethyl]-1H-pyrazolo[3,4-c]pyridin-3-amine] | 0.5 to 2.5 |
| Cc1ccc(-n2nc(N3CCOC(COCCN)C3)c3ccncc32)cc1 (stereo not drawn) [Compound 32, 2-({4-[1-(4-Methylphenyl)-1H-pyrazolo[3,4-c]pyridin-3-yl]morpholin-2-yl}methoxy)ethan-1-amine] | 0.1 to 0.5 |
| Cc1ccc(-n2nc(N3CCOC(CNC(=O)NC4CC4)C3)c3ccncc32)cc1 (stereo not drawn) [Compound 31, 3-Cyclopropyl-1-({4-[1-(4-methylphenyl)-1H-pyrazolo[3,4-c]pyridin-3-yl]morpholin-2-yl}methyl)urea] | < 0.1 |
| CN1CCN(C(=O)CC2COCCN2c2nn(-c3ccc(Cl)cc3)c3cnccc23)CC1 (stereo not drawn) [Compound 55, 2-{4-[1-(4-Chlorophenyl)-1H-pyrazolo[3,4-c]pyridin-3-yl]morpholin-3-yl}-1-(4-methylpiperazin-1-yl)ethan-1-one] | < 0.1 |
| CN1CCN(CCC2COCCN2c2nn(-c3ccc(Cl)cc3)c3cnccc23)CC1 (stereo not drawn) [Compound 42, 4-[1-(4-Chlorophenyl)-1H-pyrazolo[3,4-c]pyridin-3-yl]-3-[2-(4-methylpiperazin-1-yl)ethyl]morpholine] | < 0.1 |
| NCCCNC(=O)N1CCN(CC2CN(c3nn(-c4ccc(Cl)cc4)c4cnccc34)CCO2)CC1 (stereo not drawn) [Compound 38, N-(3-Aminopropyl)-4-({4-[1-(4-chlorophenyl)-1H-pyrazolo[3,4-c]pyridin-3-yl]morpholin-2-yl}methyl)piperazine-1-carboxamide tri hydrochloride] | 0.1 to 0.5 |
| CNC(=O)NCC1CN(c2nn(-c3ccc(Cl)cc3)c3cnccc23)CCO1 (stereo not drawn) [Compound 60, 1-({4-[1-(4-Chlorophenyl)-1H-pyrazolo[3,4-c]pyridin-3-yl]morpholin-2-yl}methyl)-3-methylurea] | < 0.1 |
| CN(C)[C@H]1CCN(C(=O)CC2COCCN2c2nn(-c3ccc(Cl)cc3)c3cnccc23)C1 (stereo partly drawn) [Compound 56, 2-{4-[1-(4-Chlorophenyl)-1H-pyrazolo[3,4-c]pyridin-3-yl]morpholin-3-yl}-1-[(3S)-3-(dimethylamino)pyrrolidin-1-yl] ethan-1-one] | < 0.1 |
| COC(=O)CC1COCCN1c1nn(-c2ccc(Cl)cc2)c2cnccc12 (stereo not drawn) [Compound 40, Methyl 2-{4-[1-(4-chlorophenyl)-1H-pyrazolo[3,4-c]pyridin-3-yl]morpholin-3-yl}acetate] | < 0.1 |
